Test results reported in patent US20140350081A1, “INSECT G-COUPLED RECEPTORS USEFUL AS TARGETS FOR INSECTICIDES AND COMPOUNDS AND REAGENTS IDENTIFIED USING THE SAME” (priority 2011, published 2014).
Counter-ions that a name gives are not always drawn. Like-named read-outs stand apart in the source and are kept apart here.

Experiments:
AaDOP2 [1] = molecular target: T1, AaDOP2 (Aedes aegypti, UniProt H6D5H2); experiment: LOPAC1280 antagonist screen in HEK-CRELuc-Aadop2 cells; type: cell-based; conditions: for % inhibition of DA activity (Aedes cell-based assay screen): LOPAC1280 screen hits
T1 sequence (H6D5H2 entry or part of it): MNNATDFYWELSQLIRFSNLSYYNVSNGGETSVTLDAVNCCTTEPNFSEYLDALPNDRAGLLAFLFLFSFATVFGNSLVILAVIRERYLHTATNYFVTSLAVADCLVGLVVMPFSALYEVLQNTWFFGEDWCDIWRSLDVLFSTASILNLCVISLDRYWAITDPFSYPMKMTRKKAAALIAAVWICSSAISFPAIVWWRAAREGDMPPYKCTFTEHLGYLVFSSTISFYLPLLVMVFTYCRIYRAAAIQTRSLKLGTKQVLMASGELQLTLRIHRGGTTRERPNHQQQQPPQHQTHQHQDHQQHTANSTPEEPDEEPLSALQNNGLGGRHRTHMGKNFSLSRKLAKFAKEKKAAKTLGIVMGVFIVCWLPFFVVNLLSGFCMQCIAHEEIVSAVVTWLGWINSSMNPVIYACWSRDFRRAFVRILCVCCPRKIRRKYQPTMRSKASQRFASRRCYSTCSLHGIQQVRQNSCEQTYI

AaDOP2 [2] = molecular target: T1, AaDOP2; experiment: HTRF cAMP accumulation concentration response assay (Cisbio Dynamic 2); type: cell-based
Isdop2 = Isdop2 (Ixodes scapularis, UniProt A0ACM8DGL0); experiment: cell-based; conditions: for inhibition at 10 µM: read-out: % Inhibition (of response to dopamine), Isdop2 screen
Sequence of Isdop2 (A0ACM8DGL0 entry or part of it): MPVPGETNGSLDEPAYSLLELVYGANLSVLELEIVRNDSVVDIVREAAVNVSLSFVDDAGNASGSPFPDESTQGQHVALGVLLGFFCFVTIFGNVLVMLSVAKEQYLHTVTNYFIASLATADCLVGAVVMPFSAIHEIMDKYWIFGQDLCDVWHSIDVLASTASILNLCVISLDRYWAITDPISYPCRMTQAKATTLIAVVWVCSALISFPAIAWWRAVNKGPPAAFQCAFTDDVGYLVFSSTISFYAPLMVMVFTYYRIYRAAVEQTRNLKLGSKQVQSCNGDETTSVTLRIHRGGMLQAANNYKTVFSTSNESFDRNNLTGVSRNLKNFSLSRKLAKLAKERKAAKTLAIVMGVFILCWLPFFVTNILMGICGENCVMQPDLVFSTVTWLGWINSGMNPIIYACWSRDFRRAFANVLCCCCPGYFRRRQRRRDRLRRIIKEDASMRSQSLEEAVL

Ae. aegypti L3 larvae = experiment: whole plant or invertebrate; conditions: Aedes aegypti
[3] = 10 μM compound, 300 nM dopamine, quadruplicate
[4] = AaDOP2 expressing cells in the presence of dopamine, No Inhibition = <10% inhibition at 3 μM test compound, read-out: IC50 ± S.E.M. (nM), HTRF cAMP assay
[5] = 10 μM compound, footnote 3 mM dopamine
[6] = AaDOP2 expressing cells in the presence of dopamine, No Inhibition = <10% inhibition at 3 μM test compound
[7] = 24 h, read-out: Toxicity to Aedes aegypti larvae (mortality) 24 hours, 400 μM, L3 larvae, three independent experiments
[8] = 48 h, read-out: Toxicity to Aedes aegypti larvae (mortality) 48 hours, 400 μM, L3 larvae, three independent experiments
[9] = 72 h, read-out: Toxicity to Aedes aegypti larvae (mortality) 72 hours, 400 μM, L3 larvae, three independent experiments
[10] = in vitro Concentration Response Curve assay, n = 2, relative to control antagonist Amitriptyline, read-out: Avg IC50

SMILES: CN1CCC(=C2c3ccccc3CC(=O)c3sccc32)CC1 [Ketotifen, 4-(1-methylpiperidin-4-ylidene)-4,9-dihydro-10H-benzo[4,5]cyclohepta[1,2-b]thiophen-10-one]
- % of the SCH23390 effect (AaDOP2 [1]; [3]): 96%
- % inhibition of DA activity (Aedes cell-based assay screen) (AaDOP2 [1]): 96%
- IC50 (AaDOP2 [2]; [4]): 750 ± 180 nM

SMILES: CN1CCc2ccccc2Cc2[nH]c3ccccc3c2CC1 [LE 300, 7-Methyl-6,7,8,9,14,15-hexahydro-5H-benz[d]indolo[2,3-g]azecine]
- % of the SCH23390 effect (AaDOP2 [1]): 99%
- % inhibition of DA activity (Aedes cell-based assay screen) (AaDOP2 [1]): 99%
- inhibition at 10 µM (Isdop2): 100%

SMILES: CC[C@@]1(O)C(=O)OCc2c1cc1n(c2=O)Cc2cc3ccccc3nc2-1 [(S)-(+)-Camptothecin]
- % of the SCH23390 effect (AaDOP2 [1]; [3]): 93%
- % Inhibition (of response to dopamine), Isdop2 screen (Isdop2; [5]): 97%

SMILES: COCCCC/C(=N\OCCN)c1ccc(C(F)(F)F)cc1 [Fluvoxamine]
- IC50 ± S.E.M. (nM), HTRF cAMP assay (AaDOP2 [2]; [6]): No Inhibition^a
- mortality at 400 µM (Ae. aegypti L3 larvae; [7]): 27%
- mortality at 400 µM (Ae. aegypti L3 larvae; [8]): 33%
- mortality at 400 µM (Ae. aegypti L3 larvae; [9]): 43%

SMILES: CNCCCN1c2ccccc2CCc2ccccc21 [Desipramine]
- IC50 (AaDOP2 [2]; [4]): 3300 nM
- mortality at 400 µM (Ae. aegypti L3 larvae; [7]): 30%
- mortality at 400 µM (Ae. aegypti L3 larvae; [8]): 40%
- mortality at 400 µM (Ae. aegypti L3 larvae; [9]): 43%

SMILES: CC(=O)[C@]1(O)Cc2c(O)c3c(c(O)c2[C@@H](O[C@H]2C[C@H](N)[C@H](O)[C@H](C)O2)C1)C(=O)c1ccccc1C3=O [Idarubicin]
- % of the SCH23390 effect (AaDOP2 [1]): 83%
- inhibition at 10 µM (Isdop2): 97%

SMILES: CNCC[C@@H](Oc1ccccc1C)c1ccccc1 [Atomoxetine]
- IC50 ± S.E.M. (nM), HTRF cAMP assay (AaDOP2 [2]; [6]): No Inhibition^a
- mortality at 400 µM (Ae. aegypti L3 larvae; [7]): 20%
- mortality at 400 µM (Ae. aegypti L3 larvae; [8]): 30%
- mortality at 400 µM (Ae. aegypti L3 larvae; [9]): 30%

SMILES: Cc1nc2sccn2c(=O)c1CCN1CCC(=C(c2ccc(F)cc2)c2ccc(F)cc2)CC1 [Ritanserin, 6-[2-[4-[bis(4-fluorophenyl)methylidene]piperidin-1-yl]ethyl]-7-methyl-[1,3]thiazolo[2,3-b]pyrimidin-5-one]
- % of the SCH23390 effect (AaDOP2 [1]; [3]): 83%
- % inhibition of DA activity (Aedes cell-based assay screen) (AaDOP2 [1]): 83%
- inhibition at 10 µM (Isdop2): 77%

SMILES: O=C1C(SCCO)=C(SCCO)C(=O)c2ccccc21 [NSC 95397]
- % of the SCH23390 effect (AaDOP2 [1]; [3]): 83%
- % Inhibition (of response to dopamine), Isdop2 screen (Isdop2): 93%

SMILES: CCC(=O)c1ccc2c(c1)N(CCCN(C)C)c1ccccc1S2 [Propionylpromazine, 1-[10-[3-(dimethylamino)propyl]phenothiazin-2-yl]propan-1-one]
- % of the SCH23390 effect (AaDOP2 [1]; [3]): 85%
- % inhibition of DA activity (Aedes cell-based assay screen) (AaDOP2 [1]): 85%
- inhibition at 10 µM (Isdop2): 94%

SMILES: Oc1cc(O)cc(/C=C/c2ccc(O)c(O)c2)c1 [Piceatannol]
- % of the SCH23390 effect (AaDOP2 [1]; [3]): 98%
- inhibition at 10 µM (Isdop2): 100%

SMILES: CC1(C)C(=O)N(CCN2CCC(C(=O)c3ccc(F)cc3)CC2)c2ccccc21.Cl [LY310762, 1-[2-[4-(4-fluorobenzoyl)piperidin-1-yl]ethyl]-3,3-dimethylindol-2-one]
- % of the SCH23390 effect (AaDOP2 [1]): 81%
- % inhibition of DA activity (Aedes cell-based assay screen) (AaDOP2 [1]): 81%
- inhibition at 10 µM (Isdop2): 72%
- mortality at 400 µM (Ae. aegypti L3 larvae; 0.5 h, read-out: percent mortality 0.5 hr, 400 uM, L3 larvae, value for this scoring time): 0%
- mortality at 400 µM (Ae. aegypti L3 larvae; 1 h, read-out: percent mortality 1 hr, 400 uM, L3 larvae, per scoring time): 0%
- mortality at 400 µM (Ae. aegypti L3 larvae; 2 h, read-out: percent mortality 2 hr, 400 uM, L3 larvae, per scoring time): 0%
- mortality at 400 µM (Ae. aegypti L3 larvae; 3 h, read-out: percent mortality 3 hr, 400 uM, L3 larvae, per scoring time): 0%
- mortality at 400 µM (Ae. aegypti L3 larvae; 4 h, read-out: percent mortality 4 hr, 400 uM, L3 larvae, per scoring time): 0%
- mortality at 400 µM (Ae. aegypti L3 larvae; [7]): 0%
- mortality at 400 µM (Ae. aegypti L3 larvae; 24 h, read-out: percent mortality 24 hr, 400 uM, L3 larvae, per scoring time): 0%
- mortality at 400 µM (Ae. aegypti L3 larvae; [8]): 3%
- mortality at 400 µM (Ae. aegypti L3 larvae; 48 h, read-out: percent mortality 48 hr, 400 uM, L3 larvae, per scoring time): 10%
- mortality at 400 µM (Ae. aegypti L3 larvae; 72 h, read-out: Cumulative % Mortality (72 hrs), 400 uM, L3 larvae): 10%
- mortality at 400 µM (Ae. aegypti L3 larvae; [9]): 3%
- mortality at 400 µM (Ae. aegypti L3 larvae; 72 h, read-out: percent mortality 72 hr, 400 uM, L3 larvae, per scoring time): 0%
- mortality at 400 µM (Ae. aegypti L3 larvae; […], read-out: percent mortality […], 400 uM, L3 larvae, per scoring time): 0%

SMILES: CN(C)CCCN1c2ccccc2Sc2ccc(C(F)(F)F)cc21 [Triflupromazine, N,N-dimethyl-3-[2-(trifluoromethyl)-10H-phenothiazin-10-yl]propan-1-amine]
- % of the SCH23390 effect (AaDOP2 [1]): 88%
- % inhibition of DA activity (Aedes cell-based assay screen) (AaDOP2 [1]): 88%
- inhibition at 10 µM (Isdop2): 83%

SMILES: O=C1c2c(O)ccc(O)c2C(=O)c2c(NCCNCCO)ccc(NCCNCCO)c21 [Mitoxantrone]
- % of the SCH23390 effect (AaDOP2 [1]; [3]): 83%

SMILES: CC(C)[C@H](CO)Nc1nc(Nc2cccc(Cl)c2)c2ncn(C(C)C)c2n1 [Purvalanol A]
- % of the SCH23390 effect (AaDOP2 [1]; [3]): 93%
- % Inhibition (of response to dopamine), Isdop2 screen (Isdop2): 84%

SMILES: CN1CCN(CC/C=C2/c3ccccc3Sc3ccc(S(=O)(=O)N(C)C)cc32)CC1 [Thiothixene, (9Z)-N,N-dimethyl-9-[3-(4-methylpiperazin-1-yl)propylidene]-9H-thioxanthene-2-sulfonamide]
- % of the SCH23390 effect (AaDOP2 [1]): 86%
- % inhibition of DA activity (Aedes cell-based assay screen) (AaDOP2 [1]): 86%
- inhibition at 10 µM (Isdop2): 87%

SMILES: Cc1nc2ccccn2c(=O)c1CCN1CCC(C(=O)c2ccc(F)cc2)CC1 [Pirenperone, 3-[2-[4-(p-fluorobenzoyl)piperidino]ethyl]-2-methyl-4h-pyrido[1,2-a]pyrimidin-4-one]
- % of the SCH23390 effect (AaDOP2 [1]; [3]): 90%
- % inhibition of DA activity (Aedes cell-based assay screen) (AaDOP2 [1]): 90%
- inhibition at 10 µM (Isdop2): 87%

SMILES: OCCN1CCN(CCCN2c3ccccc3Sc3ccc(Cl)cc32)CC1 [Perphenazine, 2-[4-[3-(2-chloro-10H-phenothiazin-10-yl)propyl]piperazin-1-yl]ethanol]
- % of the SCH23390 effect (AaDOP2 [1]; [3]): 95%
- % inhibition of DA activity (Aedes cell-based assay screen) (AaDOP2 [1]): 95%
- IC50 (AaDOP2 [2]; Avg IC50 (μM), in vitro Concentration Response Curve assay, n = 2, relative to control antagonist Amitriptyline): 101 nM
- inhibition at 10 µM (Isdop2): 76%

SMILES: O=C(Nc1ccc([N+](=O)[O-])cc1Cl)c1cc(Cl)ccc1O [Niclosamide]
- % of the SCH23390 effect (AaDOP2 [1]; [3]): 95%
- inhibition at 10 µM (Isdop2): 100%

SMILES: CN(C)CCCN1c2ccccc2Sc2ccccc21 [Promazine, N,N-dimethyl-3-(10H-phenothiazin-10-yl)-propan-1-amine]
- % of the SCH23390 effect (AaDOP2 [1]): 88%
- % inhibition of DA activity (Aedes cell-based assay screen) (AaDOP2 [1]): 88%
- inhibition at 10 µM (Isdop2): 87%

SMILES: Cc1nc2sccn2c(=O)c1CCN1CCC(=C(c2ccccc2)c2ccc(F)cc2)CC1 [Diacylglycerol kinase inhibitor I]
- % of the SCH23390 effect (AaDOP2 [1]; [3]): 90%
- % Inhibition (of response to dopamine), Isdop2 screen (Isdop2): 69%

SMILES: CCCCCCCCCCCCCC(=O)O[C@@H]1[C@@H](C)[C@@]2(O)[C@@H](C=C(CO)C[C@]3(O)C(=O)C(C)=C[C@@H]23)[C@@H]2C(C)(C)[C@]12OC(C)=O [Phorbol 12-myristate 13-acetate]
- % of the SCH23390 effect (AaDOP2 [1]): 88%
- % Inhibition (of response to dopamine), Isdop2 screen (Isdop2): 75%

SMILES: O=C1Cc2c([nH]c3ccc(Br)cc23)-c2ccccc2N1 [Kenpaullone]
- % of the SCH23390 effect (AaDOP2 [1]; [3]): 83%
- inhibition at 10 µM (Isdop2): 68%

SMILES: CC(CN(C)C)CN1c2ccccc2CCc2ccccc21 (racemic) [Trimipramine, (±)-3-(10,11-dihydro-5H-dibenzo[b,f]azepin-5-yl)-N,N,2-trimethylpropan-1-]
- % of the SCH23390 effect (AaDOP2 [1]; [3]): 87%
- % inhibition of DA activity (Aedes cell-based assay screen) (AaDOP2 [1]): 87%
- inhibition at 10 µM (Isdop2): 86%

SMILES: Cc1cc(Nc2ccccc2)nc(Nc2ccc(NC(=O)CC(C)C)cc2)n1 [Compound G869-0101, 3-methyl-N-(4-((4-methyl-6-(phenylamino)pyrimidin-2-yl)amino)phenyl)butanamide]
- IC50 (AaDOP2 [2]; [10]): 5500 nM

SMILES: CN1C2CCC1CC(OC(c1ccccc1)c1ccc(Cl)cc1)C2.Cl (stereo not drawn) [4′-Chloro-3-alpha-(diphenylmethoxy) tropane hydrochloride]
- % of the SCH23390 effect (AaDOP2 [1]; [3]): 85%
- % Inhibition (of response to dopamine), Isdop2 screen (Isdop2; [5]): 80%

SMILES: CC[C@H]1CN2CCc3cc(OC)c(OC)cc3[C@@H]2C[C@@H]1C[C@H]1NCCc2cc(OC)c(OC)cc21 [Emetine dihydrochloride hydrate]
- % of the SCH23390 effect (AaDOP2 [1]): 86%
- inhibition at 10 µM (Isdop2): 100%

SMILES: Cc1ccccc1Nc1nc(N2CCN(C)CC2)nc2c1cnn2-c1ccccc1 [Compound G932-0129, 6-(4-methylpiperazin-1-yl)-1-phenyl-N-(o-tolyl)-1H-pyrazolo[3,4-d]pyrimidin-4-amine]
- IC50 (AaDOP2 [2]; [10]): 3490 nM

SMILES: CCOC(=O)C1=C(N)Oc2c(oc(CO)cc2=O)C1c1cc([N+](=O)[O-])ccc1Cl (stereo not shown) [ST071653, ethyl 2-amino-4-(2-chloro-5-nitrophenyl)-6-(hydroxymethyl)-8-oxo-4H-pyrano[3,2-b]pyran-3-carboxylate]
- IC50 (AaDOP2 [2]; [10]): 1650 nM

SMILES: CC1(C)CCC2=C(O1)c1ccccc1C(=O)C2=O [beta-Lapachone]
- % of the SCH23390 effect (AaDOP2 [1]; [3]): 86%

SMILES: COc1ccc2[nH]cc(CCNC(=O)C(=O)c3c(-c4ccccc4)n(C)c4ccccc34)c2c1 [ST077642, N-[2-(5-methoxyindol-3-yl)ethyl]-2-(1-methyl-2-phenylindol-3-yl)-2-oxoacetamide]
- IC50 (AaDOP2 [2]; [10]): 17600 nM

SMILES: COc1ccc(C(CN(C)C)C2(O)CCCCC2)cc1 (stereo not shown) [Venlafaxine]
- IC50 ± S.E.M. (nM), HTRF cAMP assay (AaDOP2 [2]; [6]): No Inhibition^a
- mortality at 400 µM (Ae. aegypti L3 larvae; [7]): 3%
- mortality at 400 µM (Ae. aegypti L3 larvae; [8]): 7%
- mortality at 400 µM (Ae. aegypti L3 larvae; [9]): 13%
